From patent US4792545A, “Boholmycin antibiotic” (Bristol-Myers Company, priority 1986, dated 1988)
Values after ≈ are worked out from the molar mass of the structure shown.

Experiments:
E. coli Juhl [1] = assay: MIC by serial agar dilution; format: cell-based; settings: Escherichia coli, medium A: Nutrient agar, read-out: MIC
K. pneumoniae D-11 [2] = assay: in vivo efficacy in mice against experimental infection; settings: Klebsiella pneumoniae, D11, im, 120 h, read-out: PD50
M. luteus PCI-1001 = assay: MIC by serial agar dilution; format: cell-based; settings: Micrococcus luteus, PCI1001
S. aureus Smith [3] = assay: MIC by serial agar dilution; format: cell-based; settings: Staphylococcus aureus
K. pneumoniae D-11 [4] = assay: MIC by serial agar dilution; format: cell-based; settings: Klebsiella pneumoniae, D11, medium A: Nutrient agar, read-out: MIC
P. aeruginosa A20601 = assay: MIC by serial agar dilution; format: cell-based; settings: Pseudomonas aeruginosa; P. aeruginosa A20601, kanamycin resistant strain; medium A: Nutrient agar; read-out: MIC
Mycobacterium 607 D87 = assay: MIC by serial agar dilution; format: cell-based; settings: Mycobacterium, 607D87
M. flavus D-12 = assay: MIC by serial agar dilution; format: cell-based; settings: Micrococcus flavus, D12, medium A: Nutrient agar, read-out: MIC
B. subtilis ATCC6633 = assay: MIC by serial agar dilution; format: cell-based; settings: Bacillus subtilis, medium A: Nutrient agar, read-out: MIC
S. aureus A20239 = assay: MIC by serial agar dilution; format: cell-based; settings: Staphylococcus aureus, A20239
B. anthracis IID-115 = assay: microbe, parasite or virus in culture; format: cell-based; settings: Bacillus anthracis, IID115
S. aureus Smith [5] = assay: in vivo efficacy in mice against experimental infection; settings: Staphylococcus aureus, im, 120 h, read-out: PD50
Mycobacterium ranae = assay: MIC by serial agar dilution; format: cell-based; settings: Mycobacterium
E. coli A20664 = assay: MIC by serial agar dilution; format: cell-based; settings: Escherichia coli; E. coli A20664, kanamycin resistant strain; medium A: Nutrient agar; read-out: MIC
P. mirabilis A9554 = assay: MIC by serial agar dilution; format: cell-based; settings: Proteus mirabilis, medium A: Nutrient agar, read-out: MIC
E. coli NIHJ = assay: MIC by serial agar dilution; format: cell-based; settings: Escherichia coli, medium A: Nutrient agar, read-out: MIC
E. cloacae A21006 = assay: MIC by serial agar dilution; format: cell-based; settings: Enterobacter cloacae; E. cloacae A21006, kanamycin resistant strain; medium A: Nutrient agar; read-out: MIC
S. aureus 209P = assay: MIC by serial agar dilution; format: cell-based; settings: Staphylococcus aureus, 209P
E. coli K-12 = assay: MIC by serial agar dilution; format: cell-based; settings: Escherichia coli, K12, medium A: Nutrient agar, read-out: MIC
E. coli Juhl [6] = assay: in vivo efficacy in mice against experimental infection; settings: Escherichia coli, im, 120 h, read-out: PD50
P. vulgaris A9436 = assay: MIC by serial agar dilution; format: cell-based; settings: Proteus vulgaris, medium A: Nutrient agar, read-out: MIC
K. pneumoniae A9678 = assay: MIC by serial agar dilution; format: cell-based; settings: Klebsiella pneumoniae, medium A: Nutrient agar, read-out: MIC
Mycobacterium phlei = assay: MIC by serial agar dilution; format: cell-based; settings: Mycolicibacterium phlei
P. aeruginosa A9930 = assay: MIC by serial agar dilution; format: cell-based; settings: Pseudomonas aeruginosa, medium A: Nutrient agar, read-out: MIC
S. marcescens A22302 = assay: MIC by serial agar dilution; format: cell-based; settings: Serratia marcescens, A22302
Mycobacterium 607 D46 = assay: MIC by serial agar dilution; format: cell-based; settings: Mycobacterium 607 D46, kanamycin resistant strain; medium B: No. 1001 medium; read-out: MIC
P. aeruginosa A9843A = assay: microbe, parasite or virus in culture; format: cell-based; settings: Pseudomonas aeruginosa, A9843A
S. marcescens A20019 = assay: MIC by serial agar dilution; format: cell-based; settings: Serratia marcescens, A20019
B. subtilis PCI-219 = assay: inhibiting growth of B. subtilis PCI-219 (paper disc); format: cell-based; settings: for Inhibition zone vs B. subtilis PCI-219: 28° C., 18 hours
Procedure: Boholmycin dihydrochloride tetrahydrate was tested in comparison with streptomycin, glebomycin, myomycin B and kanamycin in respect to stimulating growth of E. coli D64 and in respect to inhibiting growth of B. subtilis PCI-219. The results are shown in Table 4 wherein the term "boholmycin" is used for short in referring to boholmycin dihydrochloride tetrahydrate.
*^1 8 mm paper disc containing 35 μl of test solution
*^3 Incubation at 28° C. for 18 hours

E. coli JR35/c600 = assay: MIC by serial agar dilution; format: cell-based; settings: Escherichia coli, JR35/C600
E. cloacae A20364 = assay: MIC by serial agar dilution; format: cell-based; settings: Enterobacter cloacae; E. cloacae A20364, kanamycin resistant strain; medium A: Nutrient agar; read-out: MIC
E. coli D64 = assay: stimulating growth of streptomycin-dependent E. coli D64 (paper disc); format: cell-based; settings: for Growth zone vs E. coli D64, hazy growth zone / Growth zone vs E. coli D64: 37° C., 45 hours; for Growth zone vs E. coli D64, hazy growth zone: value in parentheses
From the text: The results are shown in Table 4 wherein the term "boholmycin" is used for short in referring to boholmycin dihydrochloride tetrahydrate.

[7] = Bacillus subtilis, PCI219, 18 h, read-out: Inhibition zone vs B. subtilis PCI-219

NC[C@H]1O[C@H](O[C@H]2[C@H](O)[C@@H](O[C@H]3O[C@H](CO)[C@@H](O)[C@H](N)[C@H]3O)[C@H](N)C[C@@H]2N)[C@H](O)[C@@H](O)[C@@H]1O [kanamycin]
MIC (E. coli Juhl [1]): 1.6 µg/mL (≈ 3.3 µM)
ED50 (K. pneumoniae D-11 [2]): 1.1 mg/kg
MIC (M. luteus PCI-1001): 6.3 µg/mL (≈ 13 µM)
MIC (S. aureus Smith [3]): 0.4 µg/mL (≈ 0.826 µM)
MIC (K. pneumoniae D-11 [4]): 0.4 µg/mL (≈ 0.826 µM)
MIC (P. aeruginosa A20601): > 100 µg/mL
MIC (Mycobacterium 607 D87): 0.2 µg/mL (≈ 0.413 µM)
MIC (M. flavus D-12): 1.6 µg/mL (≈ 3.3 µM)
MIC (B. subtilis ATCC6633): 0.2 µg/mL (≈ 0.413 µM)
MIC (S. aureus A20239): > 100 µg/mL
MIC (B. anthracis IID-115): 0.4 µg/mL (≈ 0.826 µM)
ED50 (S. aureus Smith [5]): 1.1 mg/kg
MIC (Mycobacterium ranae): 0.2 µg/mL (≈ 0.413 µM)
MIC (E. coli A20664): > 100 µg/mL
MIC (P. mirabilis A9554): 0.8 µg/mL (≈ 1.65 µM)
MIC (E. coli NIHJ): 0.8 µg/mL (≈ 1.65 µM)
MIC (E. cloacae A21006): > 100 µg/mL
MIC (S. aureus 209P): 0.8 µg/mL (≈ 1.65 µM)
MIC (E. coli K-12): 0.8 µg/mL (≈ 1.65 µM)
ED50 (E. coli Juhl [6]): 3.5 mg/kg
MIC (P. vulgaris A9436): 0.2 µg/mL (≈ 0.413 µM)
MIC (K. pneumoniae A9678): 3.1 µg/mL (≈ 6.4 µM)
MIC (Mycobacterium phlei): 0.4 µg/mL (≈ 0.826 µM)
MIC (P. aeruginosa A9930): 12.5 µg/mL (≈ 25.8 µM)
MIC (S. marcescens A22302): 50 µg/mL (≈ 103 µM)
MIC (Mycobacterium 607 D46): > 100 µg/mL
MIC (P. aeruginosa A9843A): 6.3 µg/mL (≈ 13 µM)
MIC (S. marcescens A20019): 1.5 µg/mL (≈ 3.1 µM)
zone of inhibition at 100 µg/mL (B. subtilis PCI-219; [7]): 30 mm
zone of inhibition at 400 µg/mL (B. subtilis PCI-219; [7]): 34 mm
MIC (E. coli JR35/c600): > 100 µg/mL
MIC (E. cloacae A20364): > 100 µg/mL

myomycin B
Growth zone vs E. coli D64, hazy growth zone (E. coli D64; 0.25 mg/ml): 28 mm
Growth zone vs E. coli D64 (E. coli D64; 1 mg/ml): 17 mm
Growth zone vs E. coli D64, hazy growth zone (E. coli D64; 1 mg/ml): 34 mm
induction/stimulation of growth of streptomycin-dependent E. coli D64 (E. coli D64; result in words): stimulate the growth
Inhibition zone vs B. subtilis PCI-219 (B. subtilis PCI-219; 0.25 mg/ml): 29 mm
Inhibition zone vs B. subtilis PCI-219 (B. subtilis PCI-219; 1 mg/ml): 34 mm

CN[C@@H]1[C@H](O[C@H]2[C@H](O[C@H]3[C@H](O)[C@@H](O)[C@H](OC(N)=O)[C@@H](O)[C@@H]3N=C(N)N)O[C@@H](C)[C@]2(O)CO)O[C@@H](CO)[C@H](O)[C@H]1O [glebomycin]
Growth zone vs E. coli D64 (E. coli D64; 1 mg/ml): 15 mm
Growth zone vs E. coli D64 (E. coli D64; 4 mg/ml): 27 mm
Inhibition zone vs B. subtilis PCI-219 (B. subtilis PCI-219; 1 mg/ml): 30 mm
Inhibition zone vs B. subtilis PCI-219 (B. subtilis PCI-219; 4 mg/ml): 33 mm
